According to US9695426B2, “Biofuel production by recombinant microorganisms” (The Regents of the University of California, priority 2007, dated 2017):

Columns and labels:
[1] = system: native 1-butanol producers; settings: cited from earlier work
AHAS I = AHAS I (Escherichia coli, UniProt P08142); settings: read-out: Km value for 2-ketobutyrate; cited from earlier work
[2] = system: E. coli culture expressing kivd; assay: Alcohol productions with the supply of 2-keto acids; assay type: cell-based; settings: 2-keto acid added to E. coli culture expressing kivd
Description: The addition of various 2-keto acids (see Table 13) to the E. coli culture expressing kivd confirmed the specific production of the corresponding alcohols by 2- to 23-fold.

E. coli IlvA = E. coli IlvA (Escherichia coli, UniProt P04968); settings: purified E. coli IlvA in the absence of isoleucine; cited from earlier work
E. coli IlvA, sequence (P04968 whole entry): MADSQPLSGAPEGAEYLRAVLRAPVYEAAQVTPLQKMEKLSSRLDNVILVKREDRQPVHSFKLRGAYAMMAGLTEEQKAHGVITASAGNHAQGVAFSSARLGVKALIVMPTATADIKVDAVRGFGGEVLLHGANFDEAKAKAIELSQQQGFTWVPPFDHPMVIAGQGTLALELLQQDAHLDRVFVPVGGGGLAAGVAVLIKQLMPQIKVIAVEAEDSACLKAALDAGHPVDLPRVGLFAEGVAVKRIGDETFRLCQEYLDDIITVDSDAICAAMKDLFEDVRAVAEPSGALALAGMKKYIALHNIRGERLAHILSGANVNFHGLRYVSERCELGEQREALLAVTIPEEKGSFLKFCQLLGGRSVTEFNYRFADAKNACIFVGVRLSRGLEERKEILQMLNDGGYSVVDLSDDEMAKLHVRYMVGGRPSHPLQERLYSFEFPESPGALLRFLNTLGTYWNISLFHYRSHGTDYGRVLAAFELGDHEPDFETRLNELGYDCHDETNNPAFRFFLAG

E. coli TdcB = E. coli TdcB (Escherichia coli, UniProt P0AGF6); settings: E. coli TdcB in the absence of AMP; cited from earlier work
E. coli BW25113 = assay: propanol and butanol production via the threonine pathway with alternative enzymes; assay type: cell-based; settings: BW ΔmetA, Δtdh, ΔilvB, ΔilvI; tdcB with leuABCD on pCS20; 72 hours
Description: For some alcohol fermentation experiments, single colonies were picked from LB plates and inoculated into 3 ml of LB media with the appropriate antibiotics (ampicillin 100 μg/ml, kanamycin 50 μg/ml, and spectinomycin 50 μg/ml). The overnight culture grown in LB at 37° C. in a rotary shaker (250 rpm) was then inoculated (1% vol/vol) into 20 ml of M9 medium (6 g Na2HPO4, 3 g KH2PO4, 0.5 g NaCl, 1 g NH4Cl, 1 mM MgSO4, 10 mg vitamin B1 and 0.1 mM CaCl2 per liter of water) containing 30 g/L glucose, 5 g/L yeast extract, appropriate antibiotics, and 1000× Trace Metal Mix A5 (2.86 g H3BO3, 1.81 g MnCl2.4H2O, 0.222 g ZnSO4.7H2O, 0.39 g Na2MoO4.2H2O, 0.079 g CuSO4.5H2O, 49.4 mg Co(NO3)2.6H2O per liter water) in 250 ml conical flask. The culture was allowed to grow at 37° C. in a rotary shaker (250 rpm) to an OD600 of 0.4˜0.6, then 12 ml of the culture was transferred to a 250 ml screw capped conical flask and induced with 1 mM IPTG. The induced cultures were grown at 30° C. in a rotary shaker (240 rpm). Samples were taken throughout the next three to four days by opening the screwed caps of the flasks, and culture broths were either centrifuged or filtered to retrieve the supernatant. […]
Metabolite Detections. The produced alcohol compounds were quantified by a gas chromatograph (GC) equipped with flame ionization detector. […]

AHAS I, sequence (P0ADF8 whole entry): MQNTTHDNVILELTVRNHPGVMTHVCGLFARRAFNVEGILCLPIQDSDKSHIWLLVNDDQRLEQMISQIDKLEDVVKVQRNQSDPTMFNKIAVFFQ
AHAS I, sequence (P08142 whole entry): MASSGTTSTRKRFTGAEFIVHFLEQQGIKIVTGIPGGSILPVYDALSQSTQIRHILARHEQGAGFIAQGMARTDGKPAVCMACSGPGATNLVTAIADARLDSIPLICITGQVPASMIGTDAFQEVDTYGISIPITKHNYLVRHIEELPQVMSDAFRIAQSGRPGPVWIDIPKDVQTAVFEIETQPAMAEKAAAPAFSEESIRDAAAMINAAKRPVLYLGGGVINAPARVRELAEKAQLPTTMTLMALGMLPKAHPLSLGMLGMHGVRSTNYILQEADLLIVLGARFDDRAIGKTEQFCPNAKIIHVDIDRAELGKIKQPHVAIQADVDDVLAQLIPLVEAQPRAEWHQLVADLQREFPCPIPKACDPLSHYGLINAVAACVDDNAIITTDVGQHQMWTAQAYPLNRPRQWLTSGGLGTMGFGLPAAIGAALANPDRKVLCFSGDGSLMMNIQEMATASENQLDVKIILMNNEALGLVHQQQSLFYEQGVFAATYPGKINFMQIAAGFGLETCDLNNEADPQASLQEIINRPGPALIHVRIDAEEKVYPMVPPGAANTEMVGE

For `CCCCO` [1-butanol], the “tolerated 1-butanol concentration” value [1] is listed as “up to 2%”.

In the case of `CCC(=O)C(=O)O` [2-ketobutyrate], the Km (AHAS I) is given as roughly 5 mM, the “Product 1-butanol” value [2] is given as 492 µM and the “Product 1-propanol” value [2] is given as 2138 µM. For the same molecule, the “Product 2-methyl-1-butanol” value [2] was 1315 µM, the “Product 2-phenylethanol” value [2] was 26 µM and the Product isobutanol [2] was 98 µM.

In the case of `C[C@@H](O)[C@H](N)C(=O)O` [threonine], the Km (E. coli IlvA) is given as 8 mM and the Km (E. coli TdcB) is given as 20 mM.

B1: TdcB: E. coli's catabolic threonine dehydratase (protein, UniProt P0AGF6 1-329, looked up)
L-threonine dehydratase …: MHITYDLPVAIDDIIEAKQRLAGRIYKTGMPRSNYFSERCKGEIFLKFENMQRTGSFKIRGAFNKLSSLTDAEKRKGVVACSAGNHAQGVSLSCAMLGIDGKVVMPKGAPKSKVAATCDYSAEVVLHGDNFNDTIAKVSEIVEMEGRIFIPPYDDPKVIAGQGTIGLEIMEDLYDVDNVIVPIGGGGLIAGIAVAIKSINPTIRVIGVQSENVHGMAASFHSGEITTHRTTGTLADGCDVSRPGNLTYEIVRELVDDIVLVSEDEIRNSMIALIQRNKVVTEGAGALACAALLSGKLDQYIQNRKTVSIISGGNIDLSRVSQITGFVDA
In the case of B1, the “lower production of both target alcohols compared to IlvA” value (E. coli BW25113) is reported as 70%.
